{"source": "paper PMC7725003", "about": "“Systematically Studying the Optimal Amino Acid Distribution Patterns of the Amphiphilic Structure by Using the Ultrashort Amphiphiles” (Frontiers in Microbiology, 2020)", "key": {"E. coli 25922": {"test_system": "E. coli 25922", "assay_type": "cell-based, Escherichia coli", "details": "25922, 24 h", "how_it_was_run": "(§1)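 Absorbance at 492 nm after 24 h at 37°C defined the MIC as the lowest peptide level inhibiting 95% of growth. Inoculum was 0.5–1 × 10^6 CFU mL^–1 mid-log cells in MHB; peptides were diluted in 0.2% BSA.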"}, "E. coli O78": {"test_system": "E. coli O78", "assay_type": "cell-based, Escherichia coli", "details": "O78, 24 h", "how_it_was_run": "as §1"}, "E. coli UB1005": {"test_system": "E. coli UB1005", "assay_type": "cell-based, Escherichia coli", "details": "UB1005, 24 h", "how_it_was_run": "as §1"}, "S. typhimurium 14028": {"test_system": "S. typhimurium 14028", "assay_type": "cell-based, Salmonella typhimurium", "details": "14028, 24 h", "how_it_was_run": "as §1"}, "S. typhimurium 7731": {"test_system": "S. typhimurium 7731", "assay_type": "cell-based, Salmonella typhimurium", "details": "7731, 24 h", "how_it_was_run": "as §1"}, "S. pullorum 7913": {"test_system": "S. pullorum 7913", "assay_type": "cell-based, Salmonella pullorum", "details": "7913, 24 h", "how_it_was_run": "as §1"}, "P. aeruginosa 27853": {"test_system": "P. aeruginosa 27853", "assay_type": "cell-based, Pseudomonas aeruginosa", "details": "27853, 24 h", "how_it_was_run": "as §1"}, "E. coli K88": {"test_system": "E. coli K88", "description": "(§2) The antimicrobial activities of the peptides were measured using a method adapted from the National Committee for Clinical Laboratory Standards (NCCLS) with some modifications ([Chou et al., 2016]). The specific procedure for these assays has been previously described. In brief, the bacterial cells were grown to a mid-logarithmic phase and diluted in MHB to an ultimate concentration of 0.5–1 × 10^6 CFU mL^–1. Subsequently, the peptides were consecutively diluted in a 0.2% BSA solution and then added to a bacterial solution in a 96-well plate at identical volumes. After incubation for 24 h at 37°C, the MICs were determined to be the lowest peptide concentration that inhibited 95% of the bacterial growth by monitoring the absorbance at 492 nm using a microplate reader. Subsequently, 50 μL of each incubation mixture was further transferred to agar plates and incubated overnight. […] Every assay was reproduced more than 3 times."}, "E. coli K99": {"test_system": "E. coli K99", "description": "as §2"}, "Gram-negative bacteria [1]": {"test_system": "Gram-negative bacteria", "how_it_was_run": "(§3)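 Broth microdilution adapted from NCCLS: mid-log bacteria diluted in MHB to 0.5–1 × 10^6 CFU mL^–1, mixed with peptides serially diluted in 0.2% BSA. After 24 h at 37°C, MIC taken as the lowest concentration inhibiting 95% of growth by absorbance at 492 nm. Assays repeated more than 3 times.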"}, "Gram-positive bacteria [2]": {"test_system": "Gram-positive bacteria", "how_it_was_run": "as §3"}, "S. aureus 25923": {"test_system": "S. aureus 25923", "assay_type": "cell-based, Staphylococcus aureus", "details": "25923, 24 h", "how_it_was_run": "as §1"}, "S. aureus 29213 [3]": {"test_system": "S. aureus 29213", "assay_type": "cell-based, Staphylococcus aureus", "details": "29213, 24 h", "how_it_was_run": "as §1"}, "S. epidermidis 12228": {"test_system": "S. epidermidis 12228", "assay_type": "cell-based, Staphylococcus epidermidis", "details": "12228, 24 h", "how_it_was_run": "as §1"}, "MRSA 43300": {"test_system": "MRSA 43300", "assay_type": "cell-based, methicillin-resistant S. aureus", "details": "43300, 24 h", "how_it_was_run": "as §1"}, "B. subtilis 63501": {"test_system": "B. subtilis 63501", "assay_type": "cell-based, Bacillus subtilis", "details": "63501, 24 h", "how_it_was_run": "as §1"}, "E. faecalis 29212": {"test_system": "E. faecalis 29212", "assay_type": "cell-based, Enterococcus faecalis", "details": "29212, 24 h", "how_it_was_run": "as §1"}, "[4]": {"test_system": "Listeria monocytogenes CGMCC 1.1075", "assay_type": "cell-based", "details": "CGMCC 1.1075, 24 h", "how_it_was_run": "as §1"}, "[5]": {"test_system": "all of the tested bacterial strains", "test": "Geometric mean of MICs, all tested bacterial strains", "assay_type": "cell-based", "how_it_was_run": "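Mid-log bacteria at 0.5–1 × 10^6 CFU mL^–1 in MHB with peptides serially diluted in 0.2% BSA, 24 h at 37°C. MIC is the lowest concentration giving 95% growth inhibition by A492. MBC is the lowest giving >99.9% kill on agar subculture, and the GM is taken over all strains.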"}, "E. coli ATCC 25922": {"test_system": "E. coli ATCC 25922", "test": "Salt sensitivity assay (MIC)", "assay_type": "cell-based, Escherichia coli", "how_it_was_run": "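The salt sensitivity of peptides was tested against E. coli ATCC 25922 using a modified NCCLS broth microdilution MIC method. Mid-log bacteria were diluted in MHB to 0.5–1 × 10^6 CFU mL^–1 and mixed in equal volumes with peptides serially diluted in 0.2% BSA in 96-well plates. Physiological salt was added where specified, and the assay was done three independent times.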"}, "S. aureus 29213 [6]": {"test_system": "S. aureus 29213", "test": "Salt sensitivity assay (MIC)", "assay_type": "cell-based, Staphylococcus aureus", "how_it_was_run": "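MICs determined by broth microdilution in MHB with 0.5–1 × 10^6 CFU/mL, peptides serially diluted in 0.2% BSA, 24 h at 37°C. Medium supplemented with physiological salts (150 mM NaCl, 4.5 mM KCl, 6 μM NH4Cl, 8 μM ZnCl2, 1 mM MgCl2, 2mM CaCl2, 4 μM FeCl3). MIC = lowest concentration inhibiting 95% growth (A492).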"}, "Gram-negative bacteria [7]": {"test_system": "Gram-negative bacteria", "details": "geometric mean of MBCs, 9 Gram-negative strains (Table 2)"}, "Gram-positive bacteria [8]": {"test_system": "Gram-positive bacteria", "details": "geometric mean of MBCs, 7 Gram-positive strains (Table 2)"}, "[9]": {"details": "MHB, 24 h 37°C, 95% growth inhibition"}, "[10]": {"details": "value in brackets, >99.9% of cells killed"}, "[11]": {"details": "therapeutic index TI = MHC/GM MIC"}, "[12]": {"details": "no added salt, three independent assays"}}, "note": "Where no end group is shown, it is not given here.", "data": [{"substance": "RLRLRRLLL-NH2 [L9]", "values": [{"measurement": "MBC", "setting": "E. coli 25922", "result": 32, "unit": "µM"}, {"measurement": "MIC", "setting": "E. coli 25922", "result": 16, "unit": "µM"}, {"measurement": "MBC", "setting": "E. coli O78", "result": 64, "unit": "µM"}, {"measurement": "MIC", "setting": "E. coli O78", "result": 32, "unit": "µM"}, {"measurement": "MBC", "setting": "E. coli UB1005", "result": 128, "unit": "µM"}, {"measurement": "MIC", "setting": "E. coli UB1005", "result": 64, "unit": "µM"}, {"measurement": "MBC", "setting": "S. typhimurium 14028", "result": 128, "unit": "µM"}, {"measurement": "MIC", "setting": "S. typhimurium 14028", "result": 64, "unit": "µM"}, {"measurement": "MBC", "setting": "S. typhimurium 7731", "result": 128, "unit": "µM"}, {"measurement": "MIC", "setting": "S. typhimurium 7731", "result": 64, "unit": "µM"}, {"measurement": "MBC", "setting": "S. pullorum 7913", "result": 64, "unit": "µM"}, {"measurement": "MIC", "setting": "S. pullorum 7913", "result": 32, "unit": "µM"}, {"measurement": "MIC", "setting": "P. aeruginosa 27853", "result": "> 64", "unit": "µM"}, {"measurement": "MIC", "setting": "E. coli K88; [9]", "result": 16, "unit": "µM"}, {"measurement": "MBC", "setting": "E. coli K88; [10]", "result": 32, "unit": "µM"}, {"measurement": "MIC", "setting": "E. coli K99; [9]", "result": 16, "unit": "µM"}, {"measurement": "MBC", "setting": "E. coli K99; [10]", "result": 32, "unit": "µM"}, {"measurement": "GM MIC", "setting": "Gram-negative bacteria [1]; geometric mean of MICs, 9 Gram-negative strains (Table 2)", "result": 37.33, "unit": "µM"}, {"measurement": "TI, Gram-negative bacteria", "setting": "Gram-negative bacteria [1]; [11]", "result": 6.86}, {"measurement": "GM MIC", "setting": "Gram-positive bacteria [2]; geometric mean of MICs, 7 Gram-positive strains (Table 2)", "result": 64.00, "unit": "µM"}, {"measurement": "TI, Gram-positive bacteria", "setting": "Gram-positive bacteria [2]; [11]", "result": 4.00}, {"measurement": "MIC", "setting": "S. aureus 25923", "result": "> 64", "unit": "µM"}, {"measurement": "MIC", "setting": "S. aureus 29213 [3]", "result": ">64", "unit": "µM"}, {"measurement": "MIC", "setting": "S. epidermidis 12228", "result": "> 64", "unit": "µM"}, {"measurement": "MIC", "setting": "MRSA 43300", "result": ">64", "unit": "µM"}, {"measurement": "MBC", "setting": "B. subtilis 63501", "result": 16, "unit": "µM"}, {"measurement": "MIC", "setting": "B. subtilis 63501", "result": 8, "unit": "µM"}, {"measurement": "MIC", "setting": "E. faecalis 29212", "result": "> 64", "unit": "µM"}, {"measurement": "MBC", "setting": "[4]", "result": 32, "unit": "µM"}, {"measurement": "MIC", "setting": "[4]", "result": 16, "unit": "µM"}, {"measurement": "GM, All", "setting": "[5]; geometric mean of MICs across all tested strains", "result": 47.26, "unit": "µM"}, {"measurement": "TI, All", "setting": "[5]; [11]", "result": 5.42}, {"measurement": "MIC, FeCl3", "setting": "E. coli ATCC 25922; 4 μM FeCl3", "result": 16, "unit": "µM"}, {"measurement": "MIC, NH4Cl", "setting": "E. coli ATCC 25922; 6 μM NH4Cl", "result": 32, "unit": "µM"}, {"measurement": "MIC, ZnCl2", "setting": "E. coli ATCC 25922; 8 μM ZnCl2", "result": 16, "unit": "µM"}, {"measurement": "MIC, MgCl2", "setting": "E. coli ATCC 25922; 1 mM MgCl2", "result": 32, "unit": "µM"}, {"measurement": "MIC, CaCl2", "setting": "E. coli ATCC 25922; 2 mM CaCl2", "result": "> 64", "unit": "µM"}, {"measurement": "MIC, KCl", "setting": "E. coli ATCC 25922; 4.5 mM KCl", "result": 16, "unit": "µM"}, {"measurement": "MIC, NaCl", "setting": "E. coli ATCC 25922; 150 mM NaCl", "result": "> 64", "unit": "µM"}, {"measurement": "MIC, Control", "setting": "E. coli ATCC 25922; [12]", "result": 16, "unit": "µM"}, {"measurement": "MIC, FeCl3", "setting": "S. aureus 29213 [6]; 4 μM FeCl3", "result": "> 64", "unit": "µM"}, {"measurement": "MIC, NH4Cl", "setting": "S. aureus 29213 [6]; 6 μM NH4Cl", "result": "> 64", "unit": "µM"}, {"measurement": "MIC, ZnCl2", "setting": "S. aureus 29213 [6]; 8 μM ZnCl2", "result": "> 64", "unit": "µM"}, {"measurement": "MIC, MgCl2", "setting": "S. aureus 29213 [6]; 1 mM MgCl2", "result": "> 64", "unit": "µM"}, {"measurement": "MIC, CaCl2", "setting": "S. aureus 29213 [6]; 2 mM CaCl2", "result": "> 64", "unit": "µM"}, {"measurement": "MIC, KCl", "setting": "S. aureus 29213 [6]; 4.5 mM KCl", "result": "> 64", "unit": "µM"}, {"measurement": "MIC, NaCl", "setting": "S. aureus 29213 [6]; 150 mM NaCl", "result": "> 64", "unit": "µM"}, {"measurement": "MIC, Control", "setting": "S. aureus 29213 [6]; [12]", "result": "> 64", "unit": "µM"}, {"measurement": "GM MBC", "setting": "Gram-negative bacteria [7]", "result": 69.12, "unit": "µM"}, {"measurement": "GM MBC", "setting": "Gram-positive bacteria [8]", "result": 78.02, "unit": "µM"}]}]}
